Results taken from article PMC11363342 (ACS Central Science, 2024).
“Also recorded” adds a separate entry of the source.

Columns and labels:
SARS-CoV-2 [1] = format: cell-based
SARS-CoV = format: cell-based; conditions: Vero E6, MOI 1, 16 hpi, increasing concentrations
HCoV-229E = format: cell-based
SARS-CoV-2 [2] = assay: Viral load reduction assay in ALI-PBEC; format: cell-based; conditions: ALI-PBEC
Method: Thus, ALI-PBEC cells were infected with SARS-CoV-2 (10^5 PFU per insert; estimated MOI ∼0.1) and treated with compounds on the apical side of the cells for 2 h. For uninfected controls, PBS was used instead of virus. The compounds were also present in the basal medium during the whole experiment until 48 hpi, when samples were harvested. […] (Figure 4D).
ALI-PBEC were pretreated with compound in the basal medium for 3 h. Cells were infected with 100 000 PFU of SARS-CoV-2/Leiden0008 per insert (estimated MOI 0.1) with compounds present in the inoculum. After 2 h at 37 °C on a rocking platform, the inoculum was removed and cells were washed three times with warm PBS. Compounds stayed present in the basal medium until 48 h postinfection. At 48 hpi the viral load was determined by plaque assay on a 200 μL apical wash (PBS incubated on the apical side of the insets for 10 min at 37 °C). For assessing cytotoxicity with the CyQuant LDH cytotoxicity assay (Thermo Fisher Scientific), 10 μL of apical wash was diluted 5 times with 40 μL of PBS. A 25 μL volume of this dilution was added to 25 μL of assay reagent and incubated for 30 min at RT in the dark. The plate was fixed and measured at a wavelength of 490 nm (Envision reader, PerkinElmer). For the activity-based probe labeling, the insets were washed one more time with PBS and processed as described previously.[52] Briefly, cells were lysed with 60 μL of potassium phosphate buffer per insert. A fluorescently labeled probe (JJB383) was diluted in MclIvaine buffer (pH 7) to a 10 μM stock and incubated for 5 min on ice. For labeling of the cell lysate, 10 μL of lysate was added to 10 μL of MclIvaine buffer and 5 μL of probe. The lysate was incubated for 30 min at 37 °C before the addition of 10 μL of Laemmli sample buffer (4×). Samples were heated at 95 °C for 5 min and separated in a 10% SDS-PAGE gel. Fluorescence was measured at a wavelength of 625 nm (Cy5) with a Uvitec Alliance Q9 imager (BioSPX). After imaging, the gels were stained with GelCode Blue stain reagent (Thermo Fisher Scientific) and visualized using a Uvitec Essential V6 system to check for equal loading.

ER α-Glu II (GANAB) = assay: Competitive activity-based protein profiling with ABP 29 in ALI-PBEC lysate, GANAB; format: cell-based, human
GBA1 = conditions: cited from earlier work
GBA2 = conditions: cited from earlier work
SARS-CoV-2 [3] = assay: Virucidal activity assay; conditions: virus incubated 1 h; compound 11 at 50 μM

O=S1(=O)O[C@@H]2[C@H](O)[C@@H](O)[C@H](O)[C@@H](CO)[C@@H]2O1 [Compound 11, 1,6-epi-cyclophellitol cyclosulfate]
concentration at which the inhibitory effect reached a plateau (SARS-CoV-2 [1]): 1.6 µM
reduction of the infectious progeny virus titer (SARS-CoV-2 [1]): 100 fold
specific infectivity (infectious particles per viral RNA copy) (SARS-CoV-2 [1]; H1299/ACE2, 1.5 μM compound): decrease in specific infectivity
infectious progeny of SARS-CoV (in words) (SARS-CoV): significant reduction of infectious progeny
virus infectivity of HCoV-229E (in words) (HCoV-229E): did not show any reduction in virus infectivity
concentration at which the maximum antiviral effect was reached (SARS-CoV-2 [2]): 0.5 µM
reduction of viral load vs untreated control (SARS-CoV-2 [2]; 0.5 μM, 48 hpi): up to 100 fold
reduction of infectious virus titers (SARS-CoV-2 [2]; 0.5–1.6 μM): up to 2 logs
ER α-Glu II inhibition in ALI-PBEC (in words) (ER α-Glu II (GANAB); 0.5 μM): almost full inhibition
in cellulo ER α-Glu II inhibition by ABP 29 labeling (in words) (ER α-Glu II (GANAB); pH 7): most efficient in inhibiting ER α-Glu II and GAA at low concentrations
inhibition of GBA1 (GBA1): completely inactive; also recorded: does not inhibit
inhibition of GBA2 (GBA2): completely inactive; also recorded: does not inhibit
virucidal effect on infectious titer (SARS-CoV-2 [3]): no effect on the infectious titer
